From PubChem BioAssay AID1915 (Broad Institute, 2009)
Records with an inconclusive call do not appear.

Tested on: Group A Streptococcus UMAA2166 viability, BacTiterGlo luminescence, 6 h
Experiment: GAS UMAA2166 growth inhibition – luminescence, BacTiterGlo, counter-screen for streptokinase expression inhibitor project, dose response (AID 1915)

For `CN(C)c1ccnc2c[cH-]cc12.[Fe].c1ccc(-[c-]2[c-](-c3ccccc3)[c-](-c3ccccc3)[c-](-c3ccccc3)[c-]2-c2ccccc2)cc1` (configuration not stated), the IC50 was 8.69 µM.
Compound `CNC(CC(C)C)C(=O)NC1C(=O)NC(CC(N)=O)C(=O)NC2C(=O)NC3C(=O)NC(C(=O)NC(C(=O)O)c4cc(O)cc(O)c4-c4cc3ccc4O)C(O)c3ccc(c(Cl)c3)Oc3cc2cc(c3OC2OC(CO)C(O)C(O)C2OC2CC(C)(N)C(O)C(C)O2)Oc2ccc(cc2Cl)C1O` (configuration not stated) has an IC50 of 0.341 µM.
